A value given as a limit tells only on which side of the number the result lay.

For one series, the system named is human red blood cells. As to the kind of experiment: Hemolytic assay. Type of series: cell-based. The note with it: concentration at 10% hemolytic activity on human red blood cells; mean (n = 2). The procedure:
Human whole blood was washed three times with 3 volumes of 0.9% NaCl and then resuspended in same to a concentration of 0.5 × 10^8 cells/mL, as determined by manual cell count in a Neubauer hemocytometer. The washed cells were then added to the 384-well compound-containing plates for a final volume of 50 μL. After a 10 min shake on a plate shaker the plates were then incubated for 1 h at 37 °C. After incubation, the plates were centrifuged at 1000 g for 10 min to pellet cells and debris, 25 μL of the supernatant was then transferred to a polystyrene 384-well assay plate. Hemolysis was determined by measuring the supernatant absorbance at […] (OD405). The absorbance was measured using a Tecan M1000 Pro monochromator plate reader. HC10 and HC50 (concentration at 10% and 50% hemolysis, respectively) were calculated by curve fitting the inhibition values vs. log(concentration) using a sigmoidal dose–response function with variable fitting values for top, bottom and slope.
In the case of Melittin [reference compound], the “HC10” value is recorded as 2.7 µg/mL.

Tested on in a further series: not given
Assay: not given
Conditions: not given
For `Ic1ccc(Cn2cncc2-c2c[nH]c3ccccc23)cc1` [Compound 4, 3-(1-(4-Iodobenzyl)-1H-imidazol-5-yl)-1H-indole], the melting point (as a rule, the temperature of the solid-liquid transition) was above 200 °C.
Still for that read-out and setting: under `COc1ccc(CCn2cncc2-c2c[nH]c3c(F)cccc23)cc1` [Compound 67, 7-Fluoro-3-(1-(4-methoxyphenethyl)-1H-imidazol-5-yl)-1H-indole] stands 175 to 176 °C.
Still for that read-out and setting: under `COc1ccc(OC)c(CCn2cncc2-c2c[nH]c3cc(Cl)ccc23)c1` [Compound 33, 6-Chloro-3-(1-(2,5-dimethoxyphenethyl)-1H-imidazol-5-yl)-1H-indole] stands 80 to 81 °C; under `Clc1cccc2[nH]cc(-c3cncn3Cc3c[nH]c4ccccc34)c12` [Compound 75, 3-(1-((1H-Indol-3-yl)methyl)-1H-imidazol-5-yl)-4-chloro-1H-indole], 195 to 196 °C; under `Fc1cccc2[nH]cc(-c3cncn3CCc3c[nH]c4ccccc34)c12` [Compound 81, 3-(1-(2-(1H-Indol-3-yl)ethyl)-1H-imidazol-5-yl)-4-fluoro-1H-indole], above 230 °C.
Still for that read-out and setting: next, `Brc1cccc2[nH]cc(-c3cncn3CCc3ccccc3)c12` [Compound 55, 4-Bromo-3-(1-phenethyl-1H-imidazol-5-yl)-1H-indole]: 204 to 205 °C; `COc1ccc(CCn2cncc2-c2c[nH]c3cccc(Br)c23)cc1` [Compound 70, 4-Bromo-3-(1-(4-methoxyphenethyl)-1H-imidazol-5-yl)-1H-indole]: 83 to 84 °C.
Molecule `Fc1cccc2c(-c3cncn3CCc3ccccc3)c[nH]c12` [Compound 52, 7-Fluoro-3-(1-phenethyl-1H-imidazol-5-yl)-1H-indole] returned a melting point of 45 to 46 °C.
Molecule `COc1ccc(Cn2cncc2-c2c[nH]c3ccc(OC)cc23)cc1` [Compound 64, 5-Methoxy-3-(1-(4-methoxybenzyl)-1H-imidazol-5-yl)-1H-indole] had a melting point of 67 to 68 °C.
On the same count and under the same terms, under `COc1ccc(CCn2cncc2-c2c[nH]c3cccc(Cl)c23)cc1` [Compound 68, 4-Chloro-3-(1-(4-methoxyphenethyl)-1H-imidazol-5-yl)-1H-indole] stands 76 to 77 °C; under `Clc1cccc2c(-c3cncn3Cc3ccccc3)c[nH]c12` [Compound 47, 3-(1-Benzyl-1H-imidazol-5-yl)-7-chloro-1H-indole], 179 to 180 °C.
Turning to `Clc1ccc2[nH]cc(-c3cncn3Cc3ccc(I)cc3)c2c1` [Compound 7, 5-Chloro-3-(1-(4-iodobenzyl)-1H-imidazol-5-yl)-1H-indole], the melting point is above 200 °C.
The same measure, in the same setting: next, `Fc1ccc2[nH]cc(-c3cncn3Cc3ccc(I)cc3)c2c1` [Compound 5, 5-Fluoro-3-(1-(4-iodobenzyl)-1H-imidazol-5-yl)-1H-indole]: 187 to 188 °C; `COc1ccc(Cn2cncc2-c2c[nH]c3cccc(Br)c23)cc1` [Compound 63, 4-Bromo-3-(1-(4-methoxybenzyl)-1H-imidazol-5-yl)-1H-indole]: 92 to 93 °C; `Brc1ccc2[nH]cc(-c3cncn3CCc3ccc4c(c3)OCO4)c2c1` [Compound 41, 3-(1-(2-(Benzo[d][1,3]dioxol-5-yl)ethyl)-1H-imidazol-5-yl)-5-bromo-1H-indole]: 176 to 177 °C.
In the case of `COc1ccc(Cn2cncc2-c2c[nH]c3cc(F)ccc23)cc1` [Compound 13, 6-Fluoro-3-(1-(4-methoxybenzyl)-1H-imidazol-5-yl)-1H-indole], the melting point lay within 181 to 182 °C.
Still for that read-out and setting: next, `Fc1ccc2c(-c3cncn3CCc3ccc4c(c3)OCO4)c[nH]c2c1` [Compound 38, 3-(1-(2-(Benzo[d][1,3]dioxol-5-yl)ethyl)-1H-imidazol-5-yl)-6-fluoro-1H-indole]: 188 to 189 °C.
Still for that read-out and setting: next, `Clc1ccc2c(-c3cncn3Cc3ccc(I)cc3)c[nH]c2c1` [Compound 8, 6-Chloro-3-(1-(4-iodobenzyl)-1H-imidazol-5-yl)-1H-indole]: above 200 °C.
`COc1ccc2c(-c3cncn3CCc3c[nH]c4ccccc34)c[nH]c2c1` [Compound 88, 3-(1-(2-(1H-Indol-3-yl)ethyl)-1H-imidazol-5-yl)-6-methoxy-1H-indole] yielded a melting point of 81 to 82 °C.
As for `COc1ccc(Cn2cncc2-c2c[nH]c3cc(Cl)ccc23)cc1` [Compound 15, 6-Chloro-3-(1-(4-methoxybenzyl)-1H-imidazol-5-yl)-1H-indole], the melting point is 178 to 179 °C.
`Fc1cccc2[nH]cc(-c3cncn3Cc3ccccc3)c12` [Compound 43, 3-(1-Benzyl-1H-imidazol-5-yl)-4-fluoro-1H-indole] displayed a melting point of 177 to 178 °C.
On the same count and under the same terms, next, `Clc1cccc2c(-c3cncn3Cc3c[nH]c4ccccc34)c[nH]c12` [Compound 77, 3-(1-((1H-Indol-3-yl)methyl)-1H-imidazol-5-yl)-7-chloro-1H-indole]: 165 to 166 °C; `Fc1cccc2c(-c3cncn3CCc3c[nH]c4ccccc34)c[nH]c12` [Compound 82, 3-(1-(2-(1H-Indol-3-yl)ethyl)-1H-imidazol-5-yl)-7-fluoro-1H-indole]: above 230 °C; `COc1ccc2[nH]cc(-c3cncn3Cc3ccccc3)c2c1` [Compound 49, 3-(1-Benzyl-1H-imidazol-5-yl)-5-methoxy-1H-indole]: 65 to 66 °C.
On the same count and under the same terms, under `c1ccc(-c2cncn2CCc2c[nH]c3ccccc23)cc1` [Compound 113, 3-(2-(5-Phenyl-1H-imidazol-1-yl)ethyl)-1H-indole] stands 155 to 156 °C.
The molecule `CCCCCn1cncc1-c1c[nH]c2cccc(F)c12` showed a melting point of 147 to 148 °C.
Same read-out and setting: next, `CCCCCn1cncc1-c1c[nH]c2cccc(Cl)c12`: 188 to 189 °C; `Brc1cccc2[nH]cc(-c3cncn3CCc3c[nH]c4ccccc34)c12` [Compound 86, 3-(1-(2-(1H-Indol-3-yl)ethyl)-1H-imidazol-5-yl)-4-bromo-1H-indole]: above 230 °C.

These data come from publication PMC9598367, “Discovery and Preliminary Structure-Activity Investigation of 3-Substituted-1H-imidazol-5-yl-1H-indoles with In Vitro Activity towards Methicillin-Resistant Staphylococcus aureus” (Antibiotics, 2022).
